Active and inactive are the calls of the source. The rule behind the calls is not given here.
Columns and labels:
[1] = Cmax in Sprague-Dawley rat at 100 mg/kg, po measured up to 24 hrs by LC-MS/MS analysis; assay type: ADME, organism-based; set-up: dose 100 mg/kg, time < 24 hrs, route po; conditions: in vivo
HGC-27 [2] = assay: Induction of morphological changes in human HGC-27 cells assessed as chromatin condensation incubated for 36 hrs by Giemsa staining based microscopic analysis; assay type: functional, cell-based; conditions: dose 0.1-8 µM
HGC-27 [3] = assay: Induction of apoptosis in human HGC-27 cells assessed as late apoptotic cells at 8 uM incubated for 48 hrs by annexin V FITC/propidium iodide staining based flow cytometry (reference value: 5.14 %); assay type: functional
MGC-803 [4] = assay: Induction of morphological changes in human MGC-803 cells assessed as cytomembrane foaming incubated for 36 hrs by Giemsa staining based microscopic analysis; assay type: functional, cell-based; conditions: dose 2.5-20 µM
HGC-27 [5] = assay: Induction of apoptosis in human HGC-27 cells assessed as early apoptotic cells at 8 uM incubated for 48 hrs by annexin V FITC/propidium iodide staining based flow cytometry (reference value: 0.66 %); assay type: functional
HGC-27 [6] = assay: Induction of morphological changes in human HGC-27 cells assessed as cytomembrane foaming incubated for 36 hrs by Giemsa staining based microscopic analysis; assay type: functional, cell-based; conditions: dose 0.1-8 µM
MGC-803 [7] = assay: Induction of cell cycle arrest in human MGC-803 cells assessed as reduction in accumulation of cells at G2/M phase at 2.5 to 10 uM incubated for 24 hrs by PI staining based flow cytometry analysis; assay type: functional; conditions: dose 2.5-10 µM
MGC-803 [8] = assay: Induction of apoptosis in human MGC-803 cells assessed as viable cells at 5 uM incubated for 48 hrs by annexin V FITC/propidium iodide staining based flow cytometry (reference value: 94.4 %); assay type: functional; conditions: read-out: Activity
HGC-27 [9] = assay: Induction of apoptosis in human HGC-27 cells assessed as reduction in Bcl-2 level incubated for 48 hrs by Western blot analysis; assay type: functional, cell-based; conditions: dose 0.1-8 µM, DDE = dose-dependent effect
HGC-27 [10] = assay: Induction of cell cycle arrest in human HGC-27 cells assessed as downregulation of CDK2 expression incubated for 48 hrs by Western blot analysis; assay type: functional, cell-based; conditions: dose 0.1-8 µM
MGC-803 [11] = assay: Induction of morphological changes in human MGC-803 cells assessed as chromatin condensation incubated for 36 hrs by Giemsa staining based microscopic analysis; assay type: functional, cell-based; conditions: dose 2.5-20 µM
HGC-27 [12] = assay: Inhibition of cell migration in human HGC-27 cells measured after 24 hrs by wound healing assay; assay type: functional, cell-based; conditions: dose 0.05-2 µM, DDE = dose-dependent effect
HGC-27 [13] = assay: Antiproliferative activity against human HGC-27 cells measured after 24 hrs by […]; assay type: functional, cell-based; conditions: HGC-27, 24 h
HGC-27 [14] = assay: Induction of apoptosis in human HGC-27 cells assessed as reduction in caspase-3 level incubated for 48 hrs by Western blot analysis; assay type: functional, cell-based; conditions: dose 0.1-8 µM, DDE = dose-dependent effect
HGC-27 [15] = assay: Induction of apoptosis in human HGC-27 cells assessed as reduction in caspase-9 level incubated for 48 hrs by Western blot analysis; assay type: functional, cell-based; conditions: dose 0.1-8 µM, DDE = dose-dependent effect
HGC-27 [16] = assay: Induction of cell cycle arrest in human HGC-27 cells assessed as downregulation of cyclin B1 expression incubated for 48 hrs by Western blot analysis; assay type: functional, cell-based; conditions: dose 0.1-8 µM
MGC-803 [17] = assay: Induction of apoptosis in human MGC-803 cells assessed as late apoptotic cells at 5 uM incubated for 48 hrs by annexin V FITC/propidium iodide staining based flow cytometry (reference value: 4.07 %); assay type: functional
HGC-27 [18] = assay: Induction of cell cycle arrest in human HGC-27 cells assessed as downregulation of cyclin A expression incubated for 48 hrs by Western blot analysis; assay type: functional, cell-based; conditions: dose 0.1-8 µM
[19] = MRT (0 to t) in Sprague-Dawley rat at 100 mg/kg, po measured up to 24 hrs by LC-MS/MS analysis; assay type: ADME, organism-based; conditions: in vivo
MGC-803 [20] = assay: Induction of apoptosis in human MGC-803 cells assessed as necrotic cells at 5 uM incubated for 48 hrs by annexin V FITC/propidium iodide staining based flow cytometry (reference value: 1.06 %); assay type: functional
MGC-803 [21] = assay: Induction of apoptosis in human MGC-803 cells assessed as necrotic cells at 10 uM incubated for 48 hrs by annexin V FITC/propidium iodide staining based flow cytometry (reference value: 1.06 %); assay type: functional
MGC-803 [22] = assay: Anti-invasion activity against human MGC-803 cells assessed as inhibition of invasion incubated for 24 hrs by transwell invasion assay; assay type: functional, cell-based; conditions: dose 1.25-10 µM, DDE = dose-dependent effect
HGC-27 [23] = assay: Anti-invasion activity against human HGC-27 cells assessed as inhibition of invasion incubated for 24 hrs by transwell invasion assay; assay type: functional, cell-based; conditions: dose 0.05-2 µM, DDE = dose-dependent effect
HGC-27 [24] = assay: Induction of cell cycle arrest in human HGC-27 cells assessed as downregulation of CDK1 expression incubated for 48 hrs by Western blot analysis; assay type: functional, cell-based; conditions: dose 0.1-8 µM
[25] = Tmax in Sprague-Dawley rat at 100 mg/kg, po measured up to 24 hrs by LC-MS/MS analysis; assay type: ADME, organism-based; conditions: in vivo
[26] = AUC (0 to t) in Sprague-Dawley rat at 100 mg/kg, po measured up to 24 hrs by LC-MS/MS analysis; assay type: ADME, organism-based; set-up: dose 100 mg/kg, time < 24 hrs, route po; conditions: in vivo
MGC-803 [27] = assay: Induction of apoptosis in human MGC-803 cells assessed as early apoptotic cells at 10 uM incubated for 48 hrs by annexin V FITC/propidium iodide staining based flow cytometry (reference value: 0.42 %); assay type: functional
MGC-803 [28] = assay: Inhibition of cell migration in human MGC-803 cells measured after 24 hrs by wound healing assay; assay type: functional, cell-based; conditions: dose 1.25-10 µM, DDE = dose-dependent effect
MGC-803 [29] = assay: Induction of apoptosis in human MGC-803 cells assessed as late apoptotic cells at 10 uM incubated for 48 hrs by annexin V FITC/propidium iodide staining based flow cytometry (reference value: 4.07 %); assay type: functional
MGC-803 [30] = assay: Induction of apoptosis in human MGC-803 cells assessed as viable cells at 10 uM incubated for 48 hrs by annexin V FITC/propidium iodide staining based flow cytometry (reference value: 94.4 %); assay type: functional; conditions: read-out: Activity
MGC-803 [31] = assay: Induction of apoptosis in human MGC-803 cells assessed as early apoptotic cells at 5 uM incubated for 48 hrs by annexin V FITC/propidium iodide staining based flow cytometry (reference value: 0.42 %); assay type: functional
[32] = Half life in Sprague-Dawley rat at 100 mg/kg, po measured up to 24 hrs by LC-MS/MS analysis; assay type: ADME, organism-based; conditions: in vivo
[33] = Toxicity in BALB/c mouse xenografted with human HGC-27 cells assessed as platelet level at 75 mg/kg, po bid for 19 days; assay type: organism-based; conditions: in vivo, 456 h, time 19 day
HGC-27 [34] = assay: Induction of apoptosis in human HGC-27 cells assessed as late apoptotic cells at 0.4 uM incubated for 48 hrs by annexin V FITC/propidium iodide staining based flow cytometry (reference value: 5.14 %); assay type: functional
HGC-27 [35] = assay: Induction of apoptosis in human HGC-27 cells assessed as early apoptotic cells at 0.4 uM incubated for 48 hrs by annexin V FITC/propidium iodide staining based flow cytometry (reference value: 0.66 %); assay type: functional
[36] = Acute toxicity in Kunming mouse assessed as effect on heart pathology at 1000 mg/kg, po measured after 14 days; assay type: organism-based; conditions: in vivo, 336 h, time 14 day
HGC-27 [37] = assay: In vivo induction of cell cycle arrest in human HGC-27 cells xenografted in BALB/c mouse assessed as increase in p27 expression at 75 to 150 mg/kg, po bid administered for 19 days and measured by immunohistochemical analysis; assay type: functional, organism-based; conditions: dose 75-150 mg/kg, time 19.0 day
[38] = Toxicity in BALB/c mouse xenografted with human HGC-27 cells assessed as hematocrit level at 75 mg/kg, po bid for 19 days; assay type: organism-based; conditions: in vivo, 456 h, time 19 day

Row | Structure (SMILES) | Cmax [1] | Activity (HGC-27 [2]) | Activity (MGC-803 [4]) | Activity (HGC-27 [6]) | viability at 5 µM (MGC-803 [8]) | Activity (HGC-27 [9]) | Activity (HGC-27 [10]) | Activity (MGC-803 [11]) | inhibition (HGC-27 [12]) | IC50 (HGC-27 [13]) | Activity (HGC-27 [14]) | Activity (HGC-27 [15]) | Activity (HGC-27 [16]) | Activity (MGC-803 [17]) | Activity (HGC-27 [18]) | MRT last at 24 h [19] | Activity (MGC-803 [20]) | Activity (MGC-803 [21]) | Activity (MGC-803 [22]) | Activity (HGC-27 [23]) | also measured
1 | O=C(NCc1ccc(NC(=O)c2ccccc2N2CCCC2)cc1)OCc1cccnc1 | 4090 ng/mL | Active | Active | Active | 65% | Dde | Active | Active | Dde | 1840 nM | Dde | Dde | Active | 17% | Active | 1.88 h | 2.47% | 3.27% | Dde | Dde | Activity (HGC-27 [3]): 49.1%; Activity (HGC-27 [5]): 3.68%; Activity (MGC-803 [7]): Active; Activity (HGC-27 [24]): Active; Tmax [25]: 0.5 h; AUC(0-t) at 24 h [26]: 4720 ng·h/mL; Activity (MGC-803 [27]): 19.1%; inhibition (MGC-803 [28]): Dde; Activity (MGC-803 [29]): 18.2%; viability at 10 µM (MGC-803 [30]): 59.4%; Activity (MGC-803 [31]): 15.5%; half-life [32]: 1.56 h
2 | O=C(NCc1ccc(NC(=O)c2cc(F)ccc2N2CCCC2)cc1)OCc1cccnc1 | 3980 ng/mL | Active | Active | Active | 81.1% | Dde | Active | Active | Dde | 280 nM | Dde | Dde | Active | 10.4% | Active | 4.25 h | 5.22% | 1.84% | Dde | Dde | Activity [33]: 1057.33 10^9/L; Activity (HGC-27 [34]): 21.3%; Activity (HGC-27 [35]): 2.63%; Activity [36]: Non-Toxic; Activity (HGC-27 [37]): Active; Activity (HGC-27 [24]): Active; Activity [38]: 58.3%; Tmax [25]: 1.2 h; AUC(0-t) at 24 h [26]: 7310 ng·h/mL; Activity (MGC-803 [27]): 7.31%; inhibition (MGC-803 [28]): Dde; Activity (MGC-803 [29]): 8.86%; viability at 10 µM (MGC-803 [30]): 82%; Activity (MGC-803 [31]): 3.23%; half-life [32]: 2.5 h

From ChEMBL document CHEMBL5143508, “Design, synthesis and biological evaluation of novel o-aminobenzamide derivatives as potential anti-gastric cancer agents in vitro and in vivo” (Eur J Med Chem, 2022)
